pIC50: −log10 of the molar value. The source made the active and inactive calls. No cut-off for these calls is given here.
Columns and labels:
HCT-116 = experiment: Antiproliferative activity against human HCT116 cells after 48 hrs by MTT assay; assay type: functional, cell-based; conditions: HCT-116, 48 h
MCF7 = experiment: Antiproliferative activity against human MCF7 cells after 48 hrs by MTT assay; assay type: functional, cell-based; conditions: MCF7, 48 h
HepG2 = experiment: Antiproliferative activity against human HepG2 cells after 48 hrs by MTT assay; assay type: functional, cell-based; conditions: HepG2, 48 h
A549 = experiment: Antiproliferative activity against human A549 cells after 48 hrs by MTT assay; assay type: functional, cell-based; conditions: A549, 48 h
[1] = target: T1, DNA topoisomerase 1 (Homo sapiens) (UniProt P11387); experiment: Inhibition of DNA topoisomerase-1 (unknown origin) assessed as reduction in enzyme-catalyzed relaxation of pBR322 DNA substrate at 20 uM after 30 mins by ethidium bromide staining based electrophoresis
T1 sequence (whole entry): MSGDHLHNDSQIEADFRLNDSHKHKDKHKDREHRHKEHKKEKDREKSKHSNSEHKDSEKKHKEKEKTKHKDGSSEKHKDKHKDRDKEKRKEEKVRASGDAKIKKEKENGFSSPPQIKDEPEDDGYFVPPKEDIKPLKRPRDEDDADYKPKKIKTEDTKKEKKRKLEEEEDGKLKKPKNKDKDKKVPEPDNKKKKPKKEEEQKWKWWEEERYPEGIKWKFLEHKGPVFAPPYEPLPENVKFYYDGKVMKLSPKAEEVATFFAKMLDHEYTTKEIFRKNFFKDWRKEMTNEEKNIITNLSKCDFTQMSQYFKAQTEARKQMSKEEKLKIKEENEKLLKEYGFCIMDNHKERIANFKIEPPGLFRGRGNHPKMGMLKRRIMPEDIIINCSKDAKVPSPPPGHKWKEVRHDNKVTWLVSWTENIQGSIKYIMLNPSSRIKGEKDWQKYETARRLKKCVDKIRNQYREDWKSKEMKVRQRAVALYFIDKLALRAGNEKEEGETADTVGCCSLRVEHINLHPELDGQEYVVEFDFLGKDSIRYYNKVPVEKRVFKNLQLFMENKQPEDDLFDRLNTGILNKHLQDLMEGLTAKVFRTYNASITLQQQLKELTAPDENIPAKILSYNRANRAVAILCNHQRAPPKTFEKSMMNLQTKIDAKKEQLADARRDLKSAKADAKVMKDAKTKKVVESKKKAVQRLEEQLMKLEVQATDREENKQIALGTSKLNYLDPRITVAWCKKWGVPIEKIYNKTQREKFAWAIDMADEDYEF

[2] = target: DNA topoisomerase 2-alpha (Homo sapiens) (UniProt P11388); experiment: Inhibition of DNA topoisomerase-2alpha (unknown origin) assessed as reduction in enzyme-catalyzed relaxation of pBR322 DNA substrate at 20 uM after 30 mins by ethidium bromide staining based electrophoresis
[3] = Antitumor activity against mouse H22-H8D8 cells implanted in ICR mouse assessed as tumor growth inhibition at 20 mg/kg, iv relative to control; assay type: functional; conditions: read-out: TGI
Mus musculus [4] = experiment: Toxicity in ICR mouse implanted with mouse H22-H8D8 cells assessed as body weight at 20 mg/kg, iv (reference value: 29.89 to 33.78 g); assay type: organism-based; conditions: in vivo
[5] = Antitumor activity against mouse H22-H8D8 cells implanted in ICR mouse assessed as tumor growth inhibition at 5 mg/kg, iv relative to control; assay type: functional; conditions: read-out: TGI
[6] = Antitumor activity against mouse H22-H8D8 cells implanted in ICR mouse assessed as tumor growth inhibition at 10 mg/kg, iv relative to control; assay type: functional; conditions: read-out: TGI
Mus musculus [7] = experiment: Toxicity in ICR mouse implanted with mouse H22-H8D8 cells assessed as body weight at 5 mg/kg, iv (reference value: 29.89 to 33.78 g); assay type: organism-based; conditions: in vivo
Mus musculus [8] = experiment: Toxicity in ICR mouse implanted with mouse H22-H8D8 cells assessed as body weight at 10 mg/kg, iv (reference value: 29.89 to 33.78 g); assay type: organism-based; conditions: in vivo

Sequence of DNA topoisomerase 2-alpha (Homo sapiens) (P11388 whole entry): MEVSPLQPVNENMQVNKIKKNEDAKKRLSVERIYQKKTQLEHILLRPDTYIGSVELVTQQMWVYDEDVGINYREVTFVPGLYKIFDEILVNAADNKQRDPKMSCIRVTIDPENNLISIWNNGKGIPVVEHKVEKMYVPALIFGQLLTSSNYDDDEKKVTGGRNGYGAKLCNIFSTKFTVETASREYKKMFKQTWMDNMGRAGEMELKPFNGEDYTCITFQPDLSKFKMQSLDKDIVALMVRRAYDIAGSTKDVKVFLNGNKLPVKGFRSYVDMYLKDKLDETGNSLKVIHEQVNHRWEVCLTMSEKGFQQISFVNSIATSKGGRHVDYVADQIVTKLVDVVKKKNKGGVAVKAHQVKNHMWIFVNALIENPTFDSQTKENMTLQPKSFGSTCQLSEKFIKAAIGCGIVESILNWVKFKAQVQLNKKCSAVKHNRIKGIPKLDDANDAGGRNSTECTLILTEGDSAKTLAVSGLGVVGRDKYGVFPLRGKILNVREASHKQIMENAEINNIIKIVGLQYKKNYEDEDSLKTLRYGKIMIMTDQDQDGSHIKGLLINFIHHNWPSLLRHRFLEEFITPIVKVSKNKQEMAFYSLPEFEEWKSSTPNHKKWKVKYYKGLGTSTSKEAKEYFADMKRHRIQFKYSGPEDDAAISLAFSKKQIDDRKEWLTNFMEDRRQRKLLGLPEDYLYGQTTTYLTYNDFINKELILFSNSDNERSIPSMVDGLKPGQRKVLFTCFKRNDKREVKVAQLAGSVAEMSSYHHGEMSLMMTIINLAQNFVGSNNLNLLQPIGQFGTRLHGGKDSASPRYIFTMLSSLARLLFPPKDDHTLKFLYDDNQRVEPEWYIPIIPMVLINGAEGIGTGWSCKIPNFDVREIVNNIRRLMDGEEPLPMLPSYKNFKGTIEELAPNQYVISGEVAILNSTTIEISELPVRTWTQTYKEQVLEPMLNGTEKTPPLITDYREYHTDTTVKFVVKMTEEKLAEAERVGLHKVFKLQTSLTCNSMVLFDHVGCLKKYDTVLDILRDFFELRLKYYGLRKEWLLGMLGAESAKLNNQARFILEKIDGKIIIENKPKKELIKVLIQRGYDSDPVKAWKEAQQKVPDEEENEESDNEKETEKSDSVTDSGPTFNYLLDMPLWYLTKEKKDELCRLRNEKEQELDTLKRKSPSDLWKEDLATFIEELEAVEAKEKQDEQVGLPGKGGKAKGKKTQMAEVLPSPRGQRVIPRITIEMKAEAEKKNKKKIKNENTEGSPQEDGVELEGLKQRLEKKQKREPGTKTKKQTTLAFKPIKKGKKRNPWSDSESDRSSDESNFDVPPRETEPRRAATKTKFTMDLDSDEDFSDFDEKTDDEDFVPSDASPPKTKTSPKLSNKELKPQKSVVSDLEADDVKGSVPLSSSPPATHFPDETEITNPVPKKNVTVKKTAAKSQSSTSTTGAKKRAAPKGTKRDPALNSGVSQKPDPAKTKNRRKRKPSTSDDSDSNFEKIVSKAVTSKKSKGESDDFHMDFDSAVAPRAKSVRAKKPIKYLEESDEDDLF

Row | SMILES | pIC50 (HCT-116) | pIC50 (MCF7) | pIC50 (HepG2) | pIC50 (A549) | inhibition [1] | inhibition [2] | inhibition in vivo at 20 mg/kg [3] | Activity (Mus musculus [4]) | inhibition in vivo at 5 mg/kg [5] | inhibition in vivo at 10 mg/kg [6] | Activity (Mus musculus [7]) | Activity (Mus musculus [8])
1 | CC(C)c1ccc(C2C(C#N)=C(N)Oc3c(N)cc4nc5ccccc5nc4c32)cc1 (stereo not drawn) | 4.69 | < 4.30 | 4.79 | 4.84 |  |  |  |  |  |  |  | 
2 | CCOC(=O)C1=C(N)Oc2c(N)cc3nc4ccccc4nc3c2C1c1cccc([N+](=O)[O-])c1 (stereo not drawn) | < 4.30 | 4.69 | 5.14 | < 4.30 |  |  |  |  |  |  |  | 
3 | COc1cc(C2C(C#N)=C(N)Oc3c(N)cc4nc5ccccc5nc4c32)cc(OC)c1Br (stereo not drawn) | 4.74 | < 4.30 | 4.91 | 4.62 |  |  |  |  |  |  |  | 
4 | CCOC(=O)C1=C(N)Oc2c(N)cc3nc4ccccc4nc3c2C1c1cc(Br)ccc1OC (stereo not drawn) | < 4.30 | < 4.30 | 4.86 | < 4.30 |  |  |  |  |  |  |  | 
5 | COc1ccc(C2C(C#N)=C(N)Oc3c(N)cc4nc5ccccc5nc4c32)c(OC)c1OC (stereo not drawn) | 4.33 | 4.55 | 4.82 | 4.69 |  |  |  |  |  |  |  | 
6 | COc1ccc(C2C(C#N)=C(N)Oc3c(N)cc4nc5ccccc5nc4c32)cc1OC (stereo not drawn) | < 4.30 | < 4.30 | < 4.30 | < 4.30 |  |  |  |  |  |  |  | 
7 | CC[C@@]1(O)C(=O)OCc2c1cc1n(c2=O)Cc2cc3cc(O)ccc3nc2-1 [HYDROXYCAMPTOTHECIN] | 5.46 | 5.62 | 5.00 | 6.10 | Active |  |  |  |  |  |  | 
8 | CCOC(=O)C1=C(N)Oc2c(N)cc3nc4ccccc4nc3c2C1c1cc(Br)c(OC)c(OC)c1 (stereo not drawn) | 5.01 | < 4.30 | 4.99 | 4.99 |  |  |  |  |  |  |  | 
9 | COc1cc([C@@H]2c3cc4c(cc3[C@@H](O[C@@H]3O[C@@H]5CO[C@@H](C)O[C@H]5[C@H](O)[C@H]3O)[C@H]3COC(=O)[C@H]23)OCO4)cc(OC)c1O |  |  |  |  |  | Active |  |  |  |  |  | 
10 | COc1cc(C2C(C#N)=C(N)Oc3c(N)cc4nc5ccccc5nc4c32)cc(Br)c1OC (stereo not drawn) | 4.92 | 4.59 | 5.21 | 5.28 |  |  |  |  |  |  |  | 
11 | CCOC(=O)C1=C(N)Oc2c(N)cc3nc4ccccc4nc3c2C1c1ccc(Cl)cc1Cl (stereo not drawn) | 4.92 | < 4.30 | 4.94 | 4.72 |  |  |  |  |  |  |  | 
12 | N#CC1=C(N)Oc2c(N)cc3nc4ccccc4nc3c2C1c1cccc([N+](=O)[O-])c1 (stereo not drawn) | < 4.30 | 4.69 | < 4.30 | 4.58 |  |  |  |  |  |  |  | 
13 | N#CC1=C(N)Oc2c(N)cc3nc4ccccc4nc3c2C1c1ccc(Br)cc1 (stereo not drawn) | 5.20 | < 4.30 | 4.99 | 4.95 |  |  |  |  |  |  |  | 
14 | CCOC(=O)C1=C(N)Oc2c(N)cc3nc4ccccc4nc3c2C1c1ccccc1F (stereo not drawn) | 4.45 | 4.73 | 5.20 | 4.61 |  |  |  |  |  |  |  | 
15 | O=P1(N(CCCl)CCCl)NCCCO1 (stereo not drawn) [CYCLOPHOSPHAMIDE ANHYDROUS] |  |  |  |  |  |  | 66.7 to 67.8% | 34.3 to 35.6 g |  |  |  | 
16 | COc1cc(C2C(C#N)=C(N)Oc3c(N)cc4nc5ccccc5nc4c32)cc(OC)c1O (stereo not drawn) | 5.12 | 4.54 | < 4.30 | < 4.30 |  |  |  |  |  |  |  | 
17 | CCOC(=O)C1=C(N)Oc2c(N)cc3nc4ccccc4nc3c2C1c1cc(OC)c(Br)c(OC)c1 (stereo not drawn) | 4.70 | < 4.30 | 5.00 | 4.87 |  |  |  |  |  |  |  | 
18 | CCOC(=O)C1=C(N)Oc2c(N)cc3nc4ccccc4nc3c2C1c1ccc(OC)c(F)c1 (stereo not drawn) | 4.69 | < 4.30 | 5.07 | 4.61 |  |  |  |  |  |  |  | 
19 | CCOC(=O)C1=C(N)Oc2c(N)cc3nc4ccccc4nc3c2C1c1cccc(Cl)c1Cl (stereo not drawn) | 5.11 | < 4.30 | 5.35 | 5.14 | Active | Active | 26.1% | 40.33 g | 27% | 4.5% | 37.78 g | 39.22 g

Row | SMILES | pIC50 (HCT-116) | pIC50 (MCF7) | pIC50 (HepG2) | pIC50 (A549) | inhibition [1] | inhibition [2] | inhibition in vivo at 20 mg/kg [3] | Activity (Mus musculus [4]) | inhibition in vivo at 5 mg/kg [5] | inhibition in vivo at 10 mg/kg [6] | Activity (Mus musculus [7]) | Activity (Mus musculus [8])
20 | CCOC(=O)C1=C(N)Oc2c(N)cc3nc4ccccc4nc3c2C1c1c(Cl)cccc1Cl (stereo not drawn) | 4.91 | < 4.30 | 4.40 | < 4.30 |  |  |  |  |  |  |  | 
21 | COc1ccc(Br)cc1C1C(C#N)=C(N)Oc2c(N)cc3nc4ccccc4nc3c21 (stereo not drawn) | 4.52 | < 4.30 | 4.93 | 4.85 |  |  |  |  |  |  |  | 
22 | CCOC(=O)C1=C(N)Oc2c(N)cc3nc4ccccc4nc3c2C1c1ccc(CC)cc1 (stereo not drawn) | 4.82 | < 4.30 | 4.52 | 4.41 |  |  |  |  |  |  |  | 
23 | CCOC(=O)C1=C(N)Oc2c(N)cc3nc4ccccc4nc3c2C1c1ccc(Br)cc1 (stereo not drawn) | 4.69 | < 4.30 | 4.97 | 4.76 |  |  |  |  |  |  |  | 
24 | N#CC1=C(N)Oc2c(N)cc3nc4ccccc4nc3c2C1c1ccc(Cl)cc1 (stereo not drawn) | 4.99 | 4.73 | 5.66 | 5.02 | Active | Active | 57.7% | 37.22 g | 0.09% | 11.7% | 40 g | 41.33 g
25 | CCOC(=O)C1=C(N)Oc2c(N)cc3nc4ccccc4nc3c2C1c1ccc(Cl)cc1 (stereo not drawn) | 5.09 | 5.00 | 5.14 | 5.26 |  |  |  |  |  |  |  | 
26 | COc1cc(OC)c(C2C(C#N)=C(N)Oc3c(N)cc4nc5ccccc5nc4c32)cc1OC (stereo not drawn) | 4.51 | < 4.30 | 4.64 | 4.35 |  |  |  |  |  |  |  | 
27 | N#CC1=C(N)Oc2c(N)cc3nc4ccccc4nc3c2C1c1ccc([N+](=O)[O-])cc1 (stereo not drawn) | 4.84 | < 4.30 | 4.74 | 4.80 |  |  |  |  |  |  |  | 
28 | CCOC(=O)C1=C(N)Oc2c(N)cc3nc4ccccc4nc3c2C1c1ccc([N+](=O)[O-])cc1 (stereo not drawn) | 4.79 | 4.88 | 5.17 | 4.73 |  |  |  |  |  |  |  | 
29 | COc1ccc(C2C(C#N)=C(N)Oc3c(N)cc4nc5ccccc5nc4c32)cc1F (stereo not drawn) | 4.69 | < 4.30 | 5.11 | 4.95 |  |  |  |  |  |  |  | 
30 | N#CC1=C(N)Oc2c(N)cc3nc4ccccc4nc3c2C1c1cccc(Cl)c1 (stereo not drawn) | 4.82 | 4.41 | 5.03 | 4.67 |  |  |  |  |  |  |  | 
31 | CCOC(=O)C1=C(N)Oc2c(N)cc3nc4ccccc4nc3c2C1c1cccc(Br)c1 (stereo not drawn) | 4.97 | < 4.30 | < 4.30 | 4.87 |  |  |  |  |  |  |  | 
32 | CCOC(=O)C1=C(N)Oc2c(N)cc3nc4ccccc4nc3c2C1c1ccccc1[N+](=O)[O-] (stereo not drawn) | 4.74 | 4.73 | 5.13 | 4.84 |  |  |  |  |  |  |  | 
33 | N#CC1=C(N)Oc2c(N)cc3nc4ccccc4nc3c2C1c1c(Cl)cccc1Cl (stereo not drawn) | 4.99 | 4.40 | < 4.30 | 4.92 |  |  |  |  |  |  |  | 
34 | N#CC1=C(N)Oc2c(N)cc3nc4ccccc4nc3c2C1c1ccccc1Cl (stereo not drawn) | 5.13 | 4.60 | 5.08 | 5.20 |  |  |  |  |  |  |  | 
35 | CCc1ccc(C2C(C#N)=C(N)Oc3c(N)cc4nc5ccccc5nc4c32)cc1 (stereo not drawn) | 5.26 | 4.72 | 4.81 | 4.63 |  |  |  |  |  |  |  | 
36 | CCOC(=O)C1=C(N)Oc2c(N)cc3nc4ccccc4nc3c2C1c1ccc(Cl)c(Cl)c1 (stereo not drawn) | < 4.30 | 5.08 | 4.62 | 4.77 |  |  |  |  |  |  |  | 
37 | CCOC(=O)C1=C(N)Oc2c(N)cc3nc4ccccc4nc3c2C1c1ccccc1Br (stereo not drawn) | 4.52 | 4.55 | 5.30 | 5.20 | Active | Active | 45.6% | 35.56 g | 38.9% | 28.9% | 35.78 g | 37.44 g

Reference: ChEMBL document CHEMBL3992500, “Design, facile synthesis and biological evaluations of novel pyrano[3,2-a]phenazine hybrid molecules as antitumor agents” (Eur J Med Chem, 2017)
